Results reported in patent US11554115B2, “Quinoline derivative for treatment of triple-negative breast cancer” (CHIA TAI TIANQING PHARMACEUTICAL GROUP CO., LTD., priority 2018, dated 2023).
Where a name gives a salt, the structure may show the parent alone.

Tested on: advanced or metastatic triple-negative breast cancer (ER-negative, PR-negative, HER2-negative)
Experiment: Clinical trial in patients with advanced or metastatic triple-negative breast cancer
Type: in vivo, human
Conditions: patients aged ≥18 years; capsules alone or in combination with chemotherapy; 12 mg once daily, two-week treatment, one-week rest

COc1cc2c(Oc3ccc4[nH]c(C)cc4c3F)ccnc2cc1OCC1(N)CC1 [1-[[[4-(4-fluoro-2-methyl-1H-indol-5-yl)oxy-6-methoxyquinolin-7-yl]oxy]methyl]cyclopropylamine dihydrochloride]
efficacy for the treatment of triple-negative breast cancer: effective
